Values of other authors as cited in publication PMC3362725, “An open-label, phase 1 study evaluating safety, tolerability, and pharmacokinetics of linifanib (ABT-869) in Japanese patients with solid tumors” (Cancer Chemotherapy and Pharmacology, 2012).

Legend:
[1] = set-up: method as in PMID 19720910; details: non-Japanese Asian patients, 0.10–0.30 mg/kg single dose, mean ± SD, N 31; calculated from ref 14; cited from earlier work
[2] = set-up: method as in PMID 19720910; details: cited from earlier work

## Cc1ccc(F)c(NC(=O)Nc2ccc(-c3cccc4[nH]nc(N)c34)cc2)c1 [linifanib, N-(4-(3-amino-1H-indazol-4-yl)phenyl)-N’-(2-fluoro-5-methylphenyl)urea]
[1]
  DN AUC24: 0.25 ± 0.10 µg·h/mL/mg
  DN C max: 0.020 ± 0.008 µg/mL/mg
  T max: 2.94 ± 1.27 h
[2]; non-Japanese Asian patients, recommended phase 2 dose
  patients with Grade 3 hypertension: 8%
[2]; prior phase 1 study in non-Japanese
  recommended phase 2 dose: 0.25 mg/kg
